The text below walks through data of EP1541559A1, “5-SUBSTITUTED ISOQUINOLINE DERIVATIVE” (Asahi Kasei Pharma Corporation, priority 2002, dated 2004).

Read-outs that look alike come from different tables or passages of the source.

For assay [1], the system named is myosin regulatory light chain. Briefly: Action on amount of phosphorylated myosin regulatory light chain in the cells (Test Example 1). It counts as cell-based, human. The conditions noted are these: neutrophils of healthy volunteers, reaction with test compound at 25°C for 5 minutes, read-out: Inhibition of myosin regulatory light chain phosphorylation (IC50: µM). As to the method:
The neutrophils were washed with PBS(-) and resuspended in Hanks' Balanced Salt Solution (HBSS+, Gibco) to prepare a cell suspension (8 x 10^6/ml). The cell suspension was diluted to 5 x 10^6/ml, introduced into Eppendorf tubes in a volume of 0.4 ml each, then 0.1 ml each of solutions of a test compound at various concentrations were added to the suspension and allowed to react at 25°C for 5 minutes. After the reaction, 0.1 ml of trichloroacetic acid solution was added to each reaction, the reaction mixture was gently shaken and centrifuged at 12,000 rpm (4°C, 5 minutes), and the supernatant was removed. Subsequently, 3 μl of 1 M Tris solution was added to the residue, the mixture was further mixed with 50 μl of extraction buffer (8 M urea, 0.02% 2-mercaptoethanol, 0.002% bromophenol blue) and left stand at room temperature for 1 hour. Then, the reaction mixture was loaded on a spin column (0.45 μm, Millipore) to remove the insoluble solids and a sample buffer for SDS polyacrylamide gel electrophoresis (25 mM, Tris-HCl pH 6.8, 2.5% 2-mercaptoethanol, 2% sodium dodecylsulfate, 5% sucrose, 0.002% bromophenol blue as final concentrations) was added, and 10 μl of each sample was subjected to electrophoresis. […] J. Physiol., 274, […]-[…] (1998)), which specifically recognize the phosphorylated myosin regulatory light chain, and donkey anti-mouse IgG (Chemicon) conjugated with horseradish peroxidase (HRP-labeled). The band of the phosphorylated myosin regulatory light chain was detected on a film by using ECL Plus Kit (Amersham Pharmacia Biotech). This band was subjected to quantification using a densitometer. By using this value, the inhibitory ratio (%) for phosphorylation of the myosin regulatory light chain was calculated by using the following equation.

A further assay concerns thoracic aorta. Briefly: Vasoconstriction inhibitory action on aorta rings constricted with phenylephrine (Test Example 2). Also noted: species or system Rats (Wistar, 11-week old). The conditions noted are these: aorta constricted with phenylephrine (1 µM); for vasoconstriction inhibitory action: result in words. The text has this: Rats (Wistar, 11-week old) were bleeded to death and laparotomized to take out the thoracic aorta.

The next assay relates to Neutrophils. Briefly: Neutrophil migration inhibitory action, Boyden Chamber, FMLP (Test Example 5). As to conditions: Homo sapiens, Neutrophil, 0.5 h, FMLP (1 µM), migration at 37°C for 30 minutes; read-out: Neutrophil migration inhibition IC50. In kind it is cell-based, human. As to the method: Neutrophils were isolated from 50 to 100 ml of peripheral blood collected from healthy donors by the method described in Test Example 1 to obtain a cell suspension (8 x 10^6/ml). Subsequently, solutions of a test compound at various concentrations were introduced into wells of a 96-well plate in a volume of 125 µl per well, the cell suspension of an equivalent volume was added to it and the plate was preincubated at room temperature for 5 minutes. During the preincubation, FMLP (1 µM, Sigma) solution was added to the lower chamber to set Boyden Chamber, the preincubated cell suspension was added to the upper chamber in a volume of 200 µl per well, and the cells were allowed to migrate at 37°C under 5% carbon dioxide for 30 minutes. The filter after the migration was collected, and the non-migrated cells adhered to the surface that faced the upper chamber were carefully wiped off. Then, the migrated cells on the back surface were stained with DifQuick dye solution (International Reagents), washed with water and dried, and then absorbance was measured at 595 nm. The inhibition ratio against migration (%) of a test compound was calculated by using the following equation: Migration inhibition ratio (%) = (1 -Absorbance of the group with addition of test compound /Absorbance of the group without addition of test compound) x 100 [formula]

In assay [2] the test system is human neutrophil fraction. Briefly: Action on increase of intracellular calcium concentration, Fura2-AM, fMLP (Test Example 7). It counts as cell-based. The conditions noted are these: test compound 1 µM added 3 minutes before fMLP (1 µM), R = F340/F380, without test compound = 100%, read-out: Maximum R value (%). The protocol:
According to the method described in Test Example 1, a neutrophil containing fraction was prepared. Fura2-AM (Sigma) at a final concentration of 3 µM was added to the human neutrophil fraction and the mixture was incubated at 37°C for 1 hour. After centrifugation (250 g for 5 minutes), the supernatant was discarded, and the neutrophils were resuspended in Hanks' Balanced Salt Solution (HBSS, Gibco) to prepare a cell suspension (8 x 10^6/ml) for measurement of intracellular calcium concentration. The cell suspension for measurement of intracellular calcium concentration was left stand at room temperature for 30 minutes. Then, 490 µl of the cell suspension for measurement of intracellular calcium concentration was placed in a cuvette, 10 µl of calcium chloride solution at a final concentration of […] was added to it and the cuvette was set in an intracellular calcium concentration analyzer (CAF110, Nippon Bunko). fMLP (Sigma) solution at a final concentration of 1 µM was added to the cell suspension, and F340 and F380, which are fluorescence intensity at 340 nm and 380 nm, respectively, were measured to obtain an R value (F340/F380) as an index of the intracellular calcium concentration. A test compound (1 µM) was added 3 minutes before the addition of fMLP, and the action on the intracellular calcium concentration was observed. The ratios of the maximum R value obtained with addition of each test compound, based on the maximum R value obtained without addition of test compound and taken as 100%, are shown in Table 10 mentioned below.
A general note: A change in cytosolic calcium serves as a functional read-out for many receptors and channels.

For assay [3], the system named is ovalbumin-immunized guinea pigs. Description: Respiratory tract constriction suppression action, ovalbumin-induced (Test Example 3). In kind it is in vivo, Hartley guinea pigs. As to conditions: result in words; test medicament given into hind leg vein after induction with 0.3 mg/kg ovalbumin, measured for 15 minutes. The protocol:
Four-week old Hartley guinea pigs (male) were immunized by intraperitoneal administration of ovalbumin (Sigma, Grade V) in amounts of 1 mg for each animal on the day on which the experiment was started, 3 mg for each animal after 2 days, and 10 mg for each animal after 4 days. Twelve to fourteen days after the final immunization, the ovalbumin-immunized guinea pigs were anesthetized by intraperitoneal administration of about 40 mg/kg of pentobarbital (Somnopentyl), and the tracheas were taken out. Subsequently, a cannula (SP-110, Natsume) was inserted into each trachea, and one end of the cannula was connected to an artificial respirator (Model-b83, Harvard). The aeration conditions were set at 6 ml per kilogram and 60 times per 1 minute. Further, a cannula for medicament administration (JMS wing needle 23G 3/4) was inserted into a hind leg vein. Myoblock (Organon Technica) was administered in an amount of 0.5 mg/kg from the cannula inserted into the hind leg vein to stop the spontaneous breathing, and after 2 or 3 minutes, 0.3 mg/kg of ovalbumin was administered to induce constriction of respiratory tract. The increase of airway resistance value 2 minutes after the induction (measurement apparatuses: pressure transducer TR-603T, respiratory amplifier AR-601G, and recorder RTA-3100, Nihon Kohden Corp.) was confirmed to be above 80 cm H2O or higher, and then, a solution of a test medicament was administered from the cannula inserted into the hind leg vein, and the airway resistance value was continuously measured for 15 minutes after the administration to determine the effect.

The test system of the next assay is BALB/c female mice. Briefly: Respiratory tract inflammation suppressing action, OVA-induced (Test Example 6). It counts as in vivo. The protocol:
According to the method described in Henderson, W.R., et al., Am. J. Respir. Cric. Care Med., 165(1), 108-116 (2002), suppressing action on bronchial inflammation was confirmed. BALB/c female mice (7-week old) were used for the test, each group consisting of 7 mice, and the control group consisting of 11 or 12 mice. The mice were intraperitoneally administered with ovalbumin (OVA, 100 ng, Sigma) and 1 mg of aluminum hydroxide for initial immunization, and after 2 weeks, they are subcutaneously administered with 10 ng of OVA as additional immunization. After further 1 week, a test compound was dissolved in water containing 0.5% carboxymethylcellulose and orally administered (30 mg/kg) to the test animals once a day for 5 days. The control group was similarly given only with water containing 0.5% carboxymethylcellulose. After 1 hour, the mice were orally inhaled with 2% OVA for 10 minutes to induce a respiratory tract inflammation. Further, the control group, in which the mice were not given with the test compound, was divided into a positive control group (n = 7), in which the mice were inhaled with 2% OVA to induce the reaction, and a negative control group (n = 4 or 5), in which the mice were similarly inhaled with physiological saline. After 24 hours, alveoli in the lungs of the test animals were washed with physiological saline, and the total infiltrated white blood cells (WBC) were counted.

The next assay concerns Japanese white rabbit. Briefly: Intraocular pressure reducing action (Test Example 4). In kind it is in vivo. As to conditions: result in words. The protocol: A Japanese white rabbit having a body weight of about 2 kg was placed in a positioner and naturalized for one week before the experiment. An ophthalmologic local […] (Benoxil) was administered to the left eye, and then intraocular pressure was measured by using a tonometer (Classic 30, Solan). The initial value of the intraocular pressure was measured, then 50 μl of a test compound (1% aqueous solution) was dropped to the left eye, and after 2 hours, the intraocular pressure was measured. The intraocular pressure reducing action of the test compounds is shown in Table 7 mentioned below as ratios (%) of reduction of intraocular pressure based on the initial value of the intraocular pressure.

The mark [4] stands for this setting: Homo sapiens, Neutrophil, 5 min.

For `Cc1cncc2cccc(S(=O)(=O)N(CCCN)CCCc3ccccc3)c12.Cl` [Example 5, N-[(4-Methyl-5-isoquinolyl)sulfonyl]-N-(3-phenylpropyl)-1,3-propylenediamine hydrochloride], the values for the IC50 (in assay [1] (setting [4]); in the assay with Neutrophils) were 0.8 µM and no more than 1 µM, respectively. Moreover, the vasoconstriction inhibitory action entry with thoracic aorta was “significant vasoconstriction inhibitory action”. Besides, the activity at 1 µM in assay [2] is 98%.

`Cc1cncc2cccc(NC3CCNCC3)c12.Cl` [Example 106, 4-(4-Methyl-5-isoquinolyl)aminopiperidine hydrochloride]: the IC50 is no more than 40 µM in assay [1] (setting [4]), no more than 20 µM in assay [1] (hydrochloride) and 10 to 40 µM in the assay on Neutrophils. For the same compound, the vasoconstriction inhibitory action entry with thoracic aorta was “significant vasoconstriction inhibitory action”. The “constriction of respiratory tract (airway resistance value)” value (“constriction of respiratory tract” below) in assay [3] is “significantly improved the constriction of respiratory tract”. The “infiltrated white blood cell number” value with BALB/c female mice (result in words) is recorded as “decrease of infiltrated white blood cell number”.

As for `Cl.N[C@H]1CC[C@H](Oc2cccc3cncc(Br)c23)CC1` [Example 133, Trans-4-[(4-bromo-5-isoquinolyl)oxy]cyclohexylamine hydrochloride], the IC50 in assay [1] (setting [4]) was no more than 40 µM; in assay [1] (hydrochloride) it was no more than 20 µM. The “constriction of respiratory tract” value in assay [3] is listed as “significantly improved the constriction of respiratory tract”. Also, in the assay with Japanese white rabbit, the “intraocular pressure reducing activity” value is “significant intraocular pressure reducing activity”.

As for `Cl.NCCN(CCS(=O)(=O)c1ccccc1)S(=O)(=O)c1cccc2c(O)nccc12` [Example 12, N-[(1-Hydroxy-5-isoquinolyl)sulfonyl]-N-[2-(phenylsulfonyl)ethyl]ethylenediamine hydrochloride], the IC50 in assay [1] (setting [4]) was 20 µM; with Neutrophils, 1 to 10 µM. In addition, the vasoconstriction inhibitory action result in the assay with thoracic aorta is reported as “significant vasoconstriction inhibitory action”. The “constriction of respiratory tract” value in assay [3] was “significantly improved the constriction of respiratory tract”. The “Total WBC count x 10E5/ml/mouse” value in the assay with BALB/c female mice (orally 30 mg/kg once a day for 5 days, inhalation of 2% OVA, alveoli washed after 24 hours) came out at 100 x 10E5/ml/mouse.

For `Cc1cncc2cccc(O[C@H]3CC[C@H](N)CC3)c12.Cl` [Example 140, Trans-4-[(4-methyl-5-isoquinolyl)oxy]cyclohexylamine hydrochloride], the IC50 in assay [1] (setting [4]) is no more than 40 µM; in assay [1] (hydrochloride) it was no more than 20 µM. The vasoconstriction inhibitory action entry in the assay on thoracic aorta was “significant vasoconstriction inhibitory action”. Further, the “constriction of respiratory tract” value in assay [3] is given as “significantly improved the constriction of respiratory tract”. The “intraocular pressure reducing activity” value in the assay with Japanese white rabbit is listed as “significant intraocular pressure reducing activity”.

Consider `Cl.NCCCN(CCCc1ccccc1)S(=O)(=O)c1cccc2c(N)nccc12` [Example 8, N-[(1-Amino-5-isoquinolyl)sulfonyl]-N-(3-phenylpropyl)-1,3-propylenediamine hydrochloride], for which the IC50 is 0.3 µM in assay [1] (setting [4]) and no more than 1 µM in the assay on Neutrophils. The vasoconstriction inhibitory action result in the assay with thoracic aorta is “significant vasoconstriction inhibitory action”. The activity at 1 µM in assay [2] was determined as 99%.

In the case of `Cc1cncc2cccc(NC3CCN(CCO)CC3)c12.Cl` [Example 146, 1-(2-Hydroxyethyl)-4-(4-methyl-5-isoquinolyl)aminopiperidine hydrochloride], the IC50 was no more than 40 µM in assay [1] (setting [4]), no more than 20 µM in assay [1] (hydrochloride) and no more than 40 µM in the assay on Neutrophils. In addition, the vasoconstriction inhibitory action entry with thoracic aorta is listed as “significant vasoconstriction inhibitory action”. In assay [3], the “constriction of respiratory tract” value is “significantly improved the constriction of respiratory tract”. Also, the “intraocular pressure reducing activity” value in the assay with Japanese white rabbit is on record as “significant intraocular pressure reducing activity”.

In the case of `Cl.c1cc(NC2CCNCC2)c2ccncc2c1` [Example 20, 4-(5-Isoquinolyl)aminopiperidine hydrochloride], the results for the IC50 (in assay [1] (setting [4]); in the assay on Neutrophils) were 1.8 µM and 1 to 10 µM, respectively. In addition, in the assay on thoracic aorta (Rattus norvegicus, test compound 1 µM, read-out: Vasoconstriction inhibitory action (relaxation ratio) (%)), the inhibition at 1 µM stood at 82.8%. In addition, the “constriction of respiratory tract” value in assay [3] is on record as “significantly improved the constriction of respiratory tract”. The activity at 1 µM in assay [2] came to 100%.
